What was measured:
CtBP1/BARS [1] = target: T1, CtBP1/BARS (Rattus norvegicus, UniProt Q9Z2F5); assay: ITC; also tryptophan fluorescence quenching (Kd […]); type: binding; set-up: His-CtBP1/BARS wt, full-length (CtBP1-S/BARS)
CtBP1/BARS [2] = target: T1, CtBP1/BARS; assay: size-exclusion chromatography (dimer to tetramer shift, […] NAD+); pull-down of self-association; type: biochemical

Kd (CtBP1/BARS [1]) [nM]	SMILES	size-exclusion chromatography (dimer to tetramer shift, 100 μM NAD+); pull-down (CtBP1/BARS [2])
660 ± 200	O=C(Nc1ccc([N+](=O)[O-])cc1)Nc1ccc(S(=O)(=O)Nc2ccc(Cl)c(Cl)c2)cc1 [Comp.11, N-(3,4-dichlorophenyl)-4-{[(4-nitrophenyl)carbamoyl]amino}benzenesulfonamide]	
	NC(=O)c1ccc[n+]([C@@H]2O[C@H](COP(=O)([O-])OP(=O)(O)OC[C@H]3O[C@@H](n4cnc5c(N)ncnc54)[C@H](O)[C@@H]3O)[C@@H](O)[C@H]2O)c1 [NAD+]	The addition of NAD^+ shifts the elution patterns so that the majority of CtBP1/BARS elutes as a tetramer
